Source: ChEMBL document CHEMBL1127902, “Synthesis of -estradiol-3-benzoate-17-(succinyl-12A-tetracycline): A potential bone-seeking estrogen” (Bioorg Med Chem Lett, 1994)

Experiment: Percent of compound bound to bone mineral hydroxylapatite was determined […]
Settings: Bone element

`CN(C)[C@@H]1C(O)=C(C(N)=O)C(=O)[C@@]2(O)C(O)=C3C(=O)c4c(O)cccc4[C@@](C)(O)[C@H]3C[C@@H]12` and `CN(C)[C@@H]1C(=O)C(C(N)=O)=C(O)[C@@]2(OC(=O)CCC(=O)O[C@H]3CC[C@H]4[C@@H]5CCc6cc(OC(=O)c7ccccc7)ccc6[C@H]5CC[C@]34C)C(O)=C3C(=O)c4c(O)cccc4[C@@](C)(O)C3CC12` (some centres undefined) cannot be ordered by Binding: greater than 99% for the first, greater than 99% for the second.

`C[C@]12CC[C@@H]3c4ccc(O)cc4CC[C@H]3[C@@H]1CC[C@@H]2O` and `C[C@]12CC[C@@H]3c4ccc(OC(=O)c5ccccc5)cc4CC[C@H]3[C@@H]1CC[C@@H]2O` cannot be ordered by Binding: less than 1% for the first, less than 1% for the second.
